The nature of data set [1]: Particle size by optical microscopy. Format: physicochemical. An excerpt:
Alginate gel microparticles were examined using an optical microscope (Zeiss, AXIOSCOP 40) with […] attachment (AXIOCam MRm). The morphology and particle size of GS-loaded alginate microparticles were characterized according to the methods described above. The morphology of insulin-loaded alginate gel microparticles and the particle size were characterized according to the methods described above. The morphology and particle size was characterized according to the methods described above.

For data set [2] the following is noted: British Pharmacopoeia 2008; cited from earlier work.
Data set [3] can be described thus: physchem. Conditions: aqueous buffer.

Converted amounts (≈) assume the structure as drawn. “And” between values parts separate entries of the source, which are not always exact repeats. Equal values may be shown once.

By solubility is commonly meant the concentration that dissolves in the medium under given conditions. Low readings indicate little dissolved substance, high ones much dissolved substance. Consider `CC(C)Cc1ccc(C(C)C(=O)O)cc1` (centres unmarked) [ibuprofen], for which, in data set [1] ('as received' powder, before size reduction), the powder particle size was 30-100 micron and 30-40 micron. Also, the “crystal / powder particle size” value in data set [1] (after precipitation from acetone into alginate solution, optical microscope) is listed as 10-15 microns. Also, in data set [2], the “solubility in acetone, methanol and dichloromethane (DCM)” value is on record as “freely soluble”; the solubility in water result was “practically insoluble”. This molecule also yielded a solubility in data set [3] of 300 µg/mL (≈ 1450 µM).
